Measured values published in the supplement of paper PMC7214452.

Assays:
Experiment in all cases: normalized area under the dose-response curve (viability relative to DMSO control) (fraction); higher = less sensitive (more viable cells)
Details in all cases: exposure time not given
[1] = system: SU-DHL2 (cancer type: DLBCL)
Experimental: (§1)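 25 myeloma and 15 non-Hodgkin lymphoma cell lines were exposed to each of 76 drugs as 7-point log dilutions (0.01 nM–10 µM) in duplicate. Viability was read with CellTiter-Glo and normalised to DMSO (0.1%) and staurosporine (10 µM) plate controls. Normalised AUC was calculated by the trapezoidal method relative to the negative control.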

MM1.R (cancer type: MM) = system: MM1.R (cancer type: MM)
Experimental: as §1

[2] = system: JeKo-1 (cancer type: Mantle)
Experimental: as §1

[3] = system: OCI-LY19 (cancer type: DLBCL)
Experimental: as §1

[4] = system: OCI-LY1 (cancer type: DLBCL)
Experimental: as §1

[5] = system: RPMI 8226 (cancer type: MM)
Experimental: as §1

KMS34 (cancer type: MM) = system: KMS34 (cancer type: MM)
Experimental: as §1

[6] = system: Mino (cancer type: Mantle)
Experimental: as §1

[7] = system: OCI-MY5/CRBN (cancer type: MM)
Experimental: as §1

[8] = system: NCI-H929 (cancer type: MM)
Experimental: as §1

Se-Ax (cancer type: TCL) = system: Se-Ax (cancer type: TCL)
Experimental: as §1

[9] = system: KMS28BM (cancer type: MM)
Experimental: as §1

[10] = system: KMS28PE (cancer type: MM)
Experimental: as §1

SKMM2 (cancer type: MM) = system: SKMM2 (cancer type: MM)
Experimental: as §1

[11] = system: OCI-MY5 (cancer type: MM)
Experimental: as §1

[12] = system: Granta-519 (cancer type: Mantle)
Experimental: as §1

[13] = system: SU-DHL1 (cancer type: TCL)
Experimental: as §1

LP1 (cancer type: MM) = system: LP1 (cancer type: MM)
Experimental: as §1

[14] = system: KMS12PE (cancer type: MM)
Experimental: as §1

My-La (cancer type: TCL) = system: My-La (cancer type: TCL)
Experimental: as §1

KMS18 (cancer type: MM) = system: KMS18 (cancer type: MM)
Experimental: as §1

U266 (cancer type: MM) = system: U266 (cancer type: MM)
Experimental: as §1

[15] = system: JVM2 (cancer type: Mantle)
Experimental: as §1

KMS11 (cancer type: MM) = system: KMS11 (cancer type: MM)
Experimental: as §1

OPM2 (cancer type: MM) = system: OPM2 (cancer type: MM)
Experimental: as §1

AMO1 (cancer type: MM) = system: AMO1 (cancer type: MM)
Experimental: as §1

[16] = system: Karpas-299 (cancer type: TCL)
Experimental: as §1

KMS26 (cancer type: MM) = system: KMS26 (cancer type: MM)
Experimental: as §1

[17] = system: OCI-LY3 (cancer type: DLBCL)
Experimental: as §1

[18] = system: OCI-MY5/Vec (cancer type: MM)
Experimental: as §1

XG2 (cancer type: MM) = system: XG2 (cancer type: MM)
Experimental: as §1

EJM (cancer type: MM) = system: EJM (cancer type: MM)
Experimental: as §1

FR4 (cancer type: MM) = system: FR4 (cancer type: MM)
Experimental: as §1

L363 (cancer type: MM) = system: L363 (cancer type: MM)
Experimental: as §1

[19] = system: OCI-MY7 (cancer type: MM)
Experimental: as §1

MM1.S (cancer type: MM) = system: MM1.S (cancer type: MM)
Experimental: as §1

JJN3 (cancer type: MM) = system: JJN3 (cancer type: MM)
Experimental: as §1

[20] = system: HuT 78 (cancer type: TCL)
Experimental: as §1

[21] = system: SU-DHL6 (cancer type: DLBCL)
Experimental: as §1

[22] = system: SR-786 (cancer type: TCL)
Experimental: as §1

SMILES	normalized area under the dose-response curve [1]	normalized area under the dose-response curve (MM1.R (cancer type: MM))	normalized area under the dose-response curve [2]	normalized area under the dose-response curve [3]	normalized area under the dose-response curve [4]	normalized area under the dose-response curve [5]	normalized area under the dose-response curve (KMS34 (cancer type: MM))	normalized area under the dose-response curve [6]	normalized area under the dose-response curve [7]	normalized area under the dose-response curve [8]	normalized area under the dose-response curve (Se-Ax (cancer type: TCL))	normalized area under the dose-response curve [9]	normalized area under the dose-response curve [10]	normalized area under the dose-response curve (SKMM2 (cancer type: MM))	normalized area under the dose-response curve [11]	normalized area under the dose-response curve [12]	normalized area under the dose-response curve [13]	normalized area under the dose-response curve (LP1 (cancer type: MM))	normalized area under the dose-response curve [14]	normalized area under the dose-response curve (My-La (cancer type: TCL))	normalized area under the dose-response curve (KMS18 (cancer type: MM))	normalized area under the dose-response curve (U266 (cancer type: MM))	normalized area under the dose-response curve [15]	normalized area under the dose-response curve (KMS11 (cancer type: MM))	normalized area under the dose-response curve (OPM2 (cancer type: MM))	normalized area under the dose-response curve (AMO1 (cancer type: MM))	normalized area under the dose-response curve [16]	normalized area under the dose-response curve (KMS26 (cancer type: MM))	normalized area under the dose-response curve [17]	normalized area under the dose-response curve [18]	normalized area under the dose-response curve (XG2 (cancer type: MM))	normalized area under the dose-response curve (EJM (cancer type: MM))	normalized area under the dose-response curve (FR4 (cancer type: MM))	normalized area under the dose-response curve (L363 (cancer type: MM))	normalized area under the dose-response curve [19]	normalized area under the dose-response curve (MM1.S (cancer type: MM))	normalized area under the dose-response curve (JJN3 (cancer type: MM))	normalized area under the dose-response curve [20]	normalized area under the dose-response curve [21]	normalized area under the dose-response curve [22]
C=CC(=O)N1CCC[C@@H](n2nc(-c3ccc(Oc4ccccc4)cc3)c3c(N)ncnc32)C1 [Ibrutinib]	0.903	0.77	0.686	0.865	0.636	0.765	0.518	0.681	0.937	0.84	0.739	0.786	0.723	0.922	0.628	0.798	0.746	0.892	0.74	0.782	0.916	0.726	0.668	0.738	0.676	0.715	0.845	0.763	0.829	0.88	0.863	0.857	0.793	0.759	1	0.81	0.728	0.928	0.852	0.825
COc1cc(C(=O)O)ccc1NC(=O)[C@@H]1N[C@@H](CC(C)(C)C)[C@](C#N)(c2ccc(Cl)cc2F)[C@H]1c1cccc(Cl)c1F [Idasanutlin]	0.961	0.84	0.852	0.92	0.959	0.943	0.751	0.928	0.852	0.79	0.82	0.935	0.922	0.962	0.834	0.873	0.877	0.955	0.96	0.937	0.831	0.773	0.832	0.868	0.861	0.732	0.86	0.798	0.967	0.902	0.838	0.858	0.837	0.834	0.92	0.81	0.88	0.825	0.898	0.861
CC[C@H](Nc1ncnc2[nH]cnc12)c1nc2cccc(F)c2c(=O)n1-c1ccccc1 [Idelalisib]	0.962	0.74	0.842	0.806	0.737	0.826	0.728	0.882	0.941	0.78	0.731	0.818	0.879	0.897	0.742	0.78	0.782	0.832	0.85	0.81	0.978	0.859	0.606	0.87	0.931	0.831	0.891	0.876	0.809	0.903	0.832	0.942	0.872	0.815	0.89	0.78	0.834	0.85	0.694	0.916
Cc1ccc(NC(=O)c2ccc(CN3CCN(C)CC3)cc2)cc1Nc1nccc(-c2cccnc2)n1 [Imatinib]	0.943	0.84	0.915	0.928	1	0.885	0.562	0.958	0.892	0.93	0.79	0.902	0.79	0.926	0.793	0.943	0.774	0.785	0.9	0.98	0.807	0.783	0.759	0.714	0.752	0.789	0.876	0.918	0.935	0.804	0.839	0.887	0.816	0.749	0.93	0.88	0.789	0.9	0.92	0.934
